The data set deals with ATP-dependent translocase ABCB1 (Homo sapiens, UniProt P08183). Nature of the data set: TP_TRANSPORTER: inhibition of Rhodamine 123 efflux (R123: 5.2 micro;M) in MDR1 transfected L-5178 cells. Type of data set: functional, cell-based. The conditions noted are these: mouse.
Chain of ATP-dependent translocase ABCB1 (P08183 whole entry): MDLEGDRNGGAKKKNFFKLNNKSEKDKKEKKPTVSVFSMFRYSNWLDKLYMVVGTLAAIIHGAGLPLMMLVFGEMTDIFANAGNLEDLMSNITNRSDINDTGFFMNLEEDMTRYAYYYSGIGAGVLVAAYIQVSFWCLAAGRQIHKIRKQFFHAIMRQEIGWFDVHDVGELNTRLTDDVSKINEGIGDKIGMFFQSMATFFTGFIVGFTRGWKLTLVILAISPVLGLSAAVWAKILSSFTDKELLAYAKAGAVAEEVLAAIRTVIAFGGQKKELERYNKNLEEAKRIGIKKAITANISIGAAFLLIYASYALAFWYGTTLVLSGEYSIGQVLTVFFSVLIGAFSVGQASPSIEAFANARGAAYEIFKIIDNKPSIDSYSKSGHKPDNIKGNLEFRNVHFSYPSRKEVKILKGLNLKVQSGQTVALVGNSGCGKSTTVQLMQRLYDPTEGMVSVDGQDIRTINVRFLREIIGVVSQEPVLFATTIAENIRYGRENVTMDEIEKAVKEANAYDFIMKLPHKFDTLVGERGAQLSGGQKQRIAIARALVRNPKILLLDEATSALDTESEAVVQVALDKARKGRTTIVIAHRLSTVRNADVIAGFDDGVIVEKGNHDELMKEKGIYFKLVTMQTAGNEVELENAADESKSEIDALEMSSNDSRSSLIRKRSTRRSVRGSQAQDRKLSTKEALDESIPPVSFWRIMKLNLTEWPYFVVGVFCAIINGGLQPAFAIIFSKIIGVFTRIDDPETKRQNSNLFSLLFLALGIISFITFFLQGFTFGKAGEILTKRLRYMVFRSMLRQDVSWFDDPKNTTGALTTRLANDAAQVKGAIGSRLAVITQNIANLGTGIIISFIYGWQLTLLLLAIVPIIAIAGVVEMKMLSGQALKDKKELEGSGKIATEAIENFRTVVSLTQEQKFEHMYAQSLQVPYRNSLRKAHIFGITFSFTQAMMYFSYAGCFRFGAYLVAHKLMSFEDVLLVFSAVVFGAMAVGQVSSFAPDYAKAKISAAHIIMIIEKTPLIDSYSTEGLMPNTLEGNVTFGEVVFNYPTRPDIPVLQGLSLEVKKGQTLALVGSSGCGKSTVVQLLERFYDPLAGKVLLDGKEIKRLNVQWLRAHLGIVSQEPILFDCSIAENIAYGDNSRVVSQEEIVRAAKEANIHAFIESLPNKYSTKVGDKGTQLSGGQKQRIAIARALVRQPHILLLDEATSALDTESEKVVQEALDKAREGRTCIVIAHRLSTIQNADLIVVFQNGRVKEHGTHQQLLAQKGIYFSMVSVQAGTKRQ

As to PERSIMMON PEEL EXTRACTS, the Activity result is “inhibitor [+]”.

Source of the values: ChEMBL document CHEMBL2074237, “Biological activity of persimmon (Diospyros kaki) peel extracts” (Phytother Res, 2003).
